# Source: patent US20100173983A1, “METHOD FOR INDUCING AUTOPHAGY” (priority 2007, published 2010)
# Key:
# [1] = test system: CP70 (cell line), R179, R182, R585 (primary ovarian cancer explants); assay: Cell viability, CellTiter 96 Aqueous One Solution Cell Proliferation Assay, ovarian cancer cells; type: cell-based, Human; details: concentrations up to 10 μg/ml, 24 hr exposure
# Description: FIG. 1. Comparative cytotoxicity of dehydroequol and Compound I as described herein (Cpd 1) against normal and ovarian cancer cells: CP70 (cell line), R179, R182, R585 (primary ovarian cancer explants) and OSE (normal ovarian surface epithelial cells). […] Both compounds were tested at concentrations up to 10 μg/ml and exposed to cells for 24 hr.
# Human EOC cell lines A2780, CP70, and OSE were propagated in RPMI plus 10% fetal bovine serum (FBS) (Gemini Bio-Products, Woodland, Calif.) at 37° C. in a 5% CO2 atmosphere. Primary EOC cells (R179, R182, R585) were isolated from malignant ovarian ascites and cultured as previously described (Kamsteeg et al., 2003). Dehydroequol and Compound 1 (Cpd 1) were obtained from Novogen (Australia). All other reagents were purchased from Sigma Chemical (St. Louis, Mo.). The pan caspase inhibitor Z-VAD-FMK was obtained from R&D Systems (Minneapolis, Minn.).
# Cell viability was evaluated using the CellTiter 96 Aqueous One Solution Cell Proliferation Assay (Promega, Madison, Wis.) according to the manufacturer's instructions. The values from the treated cells were compared with the values generated from the untreated cells and reported as percent viability. Each experiment was performed in triplicate.
# Beclin 1 / Bcl-2 = assay: Beclin 1 immunoprecipitation probed with anti-Bcl-2; type: cell-based, Human; details: mitochondrial preparations of Cpd 1 treated cells
# Description: (§1) FIG. 8. Molecular evidence of autophagic cell death in R-182 ovarian cancer cells induced by Cpd 1. […] B, Beclin 1 binds to Bcl-2. Immunoprecipitation study using mitochondrial preparations of cells pre-treated with Cpd 1 as stated in A, and subjected to beclin 1 immunoprecitation. Immunoprecipitated fractions were washed in PBS, subjected to SDS-PAGE, blotted and then probed with a mouse anti-Bcl-2 antibody. Actin and Topo-1 were used as loading control. C, Depolarized cells resulting from over-expression of Bax and Beclin 1 following administration of Cpd 1. Cells were treated with Cpd 1 as described in A, pelleted and washed in HBSS and the cell pellet resuspended in the reaction buffer for JC-1 (Biovision, Inc. MitoCapture™ K250-100). HBSS-washed cells were analysed by flow cytometry (λexcit=488 nm and (λemit=530 nm for green fluorescence (depolarized) or 590 nm for red fluorescence (polarized). 10,000 gated events were measured with a BD FACScalibur. Results were expressed as mean±standard deviation (n=3).
# To measure membrane depolarization cells were treated with Cpd 1 as described above, pelleted and washed in HBSS and the cell pellet resuspended in the reaction buffer for JC-1 (Biovision, Inc. MitoCapture™ K250-100). HBSS-washed cell pellets were resuspended in 1 mL aliquots of the Mitocapture reagent buffer with 1 μL of JC-1 solution in DMSO (Biovision).
# endonuclease G [2] = assay: Immunohistology of xenograft tumour sections, endonuclease G; type: in vivo, SCID mice; details: 100 mg/kg, compared to control
# Description: (§2) FIG. 11. Cpd 1 markers of autophagy observed in in vitro studies are also present in vivo. […] T-S6K served as loading control.
# In vivo studies using tumour-bearing mice were conducted to further confirm that Cpd 1 induces programmed cell death via an autophagic process. SCID mice bearing chemoresistant epithelial ovarian cancer (EOC) xenografts derived from a primary cell culture of a patient's ascites were administered with increasing doses of Cpd 1 by intraperotineal injection resulting in reductions in both tumor volume and tumor weight (data not shown). Representative tumours excised from these mice and tumour-bearing mice administered vehicle control were then fixed, sectioned and subjected to immunohistopathology analysis using an α-enodonuclease G directed monoclonal antibody. Tumor samples were blocked with either 10% horse or goat serum in PBS for 1 hour at room temperature. Following three washes with PBS, samples were incubated overnight at 4° C. with either the anti-EndoG (LifeSpan Bioscience) antibody or mouse IgG1 isotype as negative controls. After three washes with PBS, specific staining was detected by incubating with a peroxidase-conjugated horse anti-mouse antibody (1:1000 dilution) for 1 hour followed by a five-minute incubation with DAB substrate (Vector Laboratories). […]
# mTOR = assay: Western blot of R-182 lysates, mTOR; type: cell-based, Human
# Description: FIG. 10. The expression of upstream regulators of autophagy are also modulated in response to Cpd 1. […] B-actin was included as a loading control. B, Proposed mechanism of Cpd 1 induced autophagic cell death.
# After treatment with Cpd 1, protein was extracted from cells and measured as previously described (Kamsteeg et al., 2003). For separation of the cytoplasmic and mitochondrial fractions, cell pellets were processed using the ApoAlert Cell Fractionation kit (Promega) according to the manufacturer's instructions. 20 μg protein was denatured in sample buffer (2.5% sodium dodecyl sulfate [SDS], 10% glycerol, 5% β-mercapto-ethanol, 0.15 M Tris, pH 6.8, and 0.01% bromophenol blue) and subjected to 12% SDS polyacrylamide gel electrophoresis (SDS-PAGE) as previously described (Kamsteeg et al., 2003). The following antibodies and concentrations were used: mouse anti-Bax (BD Biosciences, 1:500), rabbit anti-actin (Sigma, 1:10,000), rabbit anti-cytochrome c (BD Biosciences, 1:1,000), mouse anti-Cox-4 (BD Biosciences, 1:500), rabbit anti-beclin 1 (Santa Cruz Biotechnology, 1:600), mouse anti LC3 (Nanotools, 1:500). […] Proteins were observed using enhanced chemiluminescence (Pierce, Rockford, Ill.).
# S6K = assay: Western blot of xenograft tumour extracts, S6K phosphorylation; type: in vivo, SCID mice; details: tumour-bearing mice dosed with Cpd 1, compared to control
# Description: as §2
# A downstream target of mTOR is the ribosomal protein S6K kinase thought to have a role in tumour invasiveness, motility and angiogenesis as well as other degenerative diseases such as diabetes (Dann et al., 2007). […] Tumour tissue was homogenised in lysis buffer containing 1% Nonidet P-40, 0.1% SDS, 0.5% deoxycholate, 150 mM NaCl, 50 mM Tris-HCl pH7.5, 1 mM EDTA, 1 mM PMSF and protease inhibitors (Roche) on ice for 30 minutes. After centrifugation at 15,000×g for 15 minutes, soluble extract was were aliquoted into a separate tube, protein content assayed by the BCA method (Pierce), and 50 μg protein loaded on SDS-PAGE gels. Proteins were electrophoretically transferred to PVDF membranes (Millipore Immobilon P) and the membranes were probed with antibodies specific to p-S6K and t-S6K (LifeSpan Bioscience). The blots were developed on X-ray films using HRP-conjugated secondary antibodies and a chemiluminescent substrate (ECL, Amersham, N.Y.).
# endonuclease G [3] = assay: Western blot of R-182 nuclear preparations, endonuclease G; type: cell-based, Human; details: R-182 cells, 5 μg/ml over 24 hr
# Description: as §1
# After treatment with Cpd 1, protein was extracted from cells and measured as previously described (Kamsteeg et al., 2003). For separation of the cytoplasmic and mitochondrial fractions, cell pellets were processed using the ApoAlert Cell Fractionation kit (Promega) according to the manufacturer's instructions. […]
smiles,measurement,setting,value
"COc1ccc([C@H]2c3ccc(O)c(C)c3OC[C@H]2c2ccc(O)cc2)cc1 (stereo in doubt) [Cpd 1, 3-(4-hydroxyphenyl)-4-(4-methoxyphenyl)-8-methylchroman-7-ol]",cell viability of ovarian cancer cells,[1],decreased cell viability of all primary ovarian cancer cells
same,Beclin and Bcl-2 co-precipitation,Beclin 1 / Bcl-2,co-precipitate at higher concentrations compared to control
same,expression of nuclear endonuclease G in tumour sections,endonuclease G [2],increased
same,mTOR expression,"mTOR; R-182 cells, 5 μg/ml",reduced up to 120 minutes post exposure
same,phosphorylated mTOR levels in soluble extracts of cells,"mTOR; cells treated in vitro, compared to control",decreased
same,phosphorylation status of S6K (S6K-P) in tumour extracts,S6K,reduced compared to control
same,endonuclease G in nuclear preparations,endonuclease G [3],upregulated
